Results as given in patent US20250066383A1, “PDE 7 MODULATOR COMPOUNDS” (Omeros Corporation, priority 2023, published 2025).

Assays:
PDE7A = PDE7A (Homo sapiens (Human), UniProt Q13946); assay: PDE7A assay: inhibition of PDE7A hydrolysis of [3H]cAMP to [3H]AMP (scintillation proximity, yttrium silicate beads); assay type: biochemical; conditions: 16 nM [3H]cAMP, 30° C., 20 minutes; read-out: PDE 7A IC50
Description: (§1) PDE7A and PDE7B Assay. Compounds were tested for their activity by measuring the inhibition of PDE7A or PDE7B hydrolysis of [3H]cAMP to [3H]AMP. Generally, eight dilutions of compound were assayed in 50 mM Tris-HCl pH 7.5, 8.3 mM MgCl2, 0.5 mg/mL BSA, 1.7 mM EGTA, 16 nM [3H]cAMP, and 1% DMSO. PDE7A or PDE7B (typically 1-5 ng/mL) (BPS BioSciences, CA) is added to initiate the reaction. The reaction was incubated at 30° C. for 20 minutes. PDE7A and PDE7B hydrolysis was terminated by the addition of yttrium silicate beads (GE Healthcare, RPNQ0150) and counted on a Wallac Microbeta scintillation counter, 1-2 hours following the addition of the beads. Data was analyzed using XLfit […] from which ICso values were obtained.

PDE7B = PDE7B (Homo sapiens (Human), UniProt Q9NP56); assay: PDE7B assay: inhibition of PDE7B hydrolysis of [3H]cAMP to [3H]AMP (scintillation proximity, yttrium silicate beads); assay type: biochemical; conditions: 16 nM [3H]cAMP, 30° C., 20 minutes; read-out: PDE 7B IC50
Description: as §1

PDE7B, sequence (Q9NP56 whole entry): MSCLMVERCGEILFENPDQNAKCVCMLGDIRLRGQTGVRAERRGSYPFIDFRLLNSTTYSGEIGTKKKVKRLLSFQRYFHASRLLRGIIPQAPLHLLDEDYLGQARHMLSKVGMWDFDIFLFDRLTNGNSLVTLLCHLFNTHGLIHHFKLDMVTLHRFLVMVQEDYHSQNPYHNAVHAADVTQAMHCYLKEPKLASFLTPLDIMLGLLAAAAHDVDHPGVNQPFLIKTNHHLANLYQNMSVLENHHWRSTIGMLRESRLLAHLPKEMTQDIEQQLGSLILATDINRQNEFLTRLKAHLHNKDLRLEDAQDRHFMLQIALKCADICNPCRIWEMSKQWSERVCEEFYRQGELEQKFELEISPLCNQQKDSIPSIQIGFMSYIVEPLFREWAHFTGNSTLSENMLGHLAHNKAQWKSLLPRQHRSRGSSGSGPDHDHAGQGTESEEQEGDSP
PDE7A, sequence (Q13946 whole entry): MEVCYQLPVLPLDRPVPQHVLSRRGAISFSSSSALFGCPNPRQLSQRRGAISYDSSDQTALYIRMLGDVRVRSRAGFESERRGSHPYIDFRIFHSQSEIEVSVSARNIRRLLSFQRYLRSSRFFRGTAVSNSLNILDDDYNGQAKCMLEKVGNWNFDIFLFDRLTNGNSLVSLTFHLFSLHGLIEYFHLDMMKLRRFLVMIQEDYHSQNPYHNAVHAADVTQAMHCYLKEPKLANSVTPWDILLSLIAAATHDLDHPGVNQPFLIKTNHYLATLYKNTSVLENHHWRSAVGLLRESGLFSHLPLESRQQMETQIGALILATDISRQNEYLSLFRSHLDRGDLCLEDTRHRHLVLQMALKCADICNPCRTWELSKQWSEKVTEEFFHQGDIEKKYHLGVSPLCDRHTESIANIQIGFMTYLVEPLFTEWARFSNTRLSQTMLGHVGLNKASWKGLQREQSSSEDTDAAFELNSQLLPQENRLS

Row | Compound | IC50 (PDE7A) [µM] | IC50 (PDE7B) [µM]
1 | Cc1nn(CC2CCC2)c2sc(C(=O)N[C@H]3CC[C@H](N4CCN(CC(F)(F)F)CC4)CC3)cc12 [II-21, 1-(cyclobutylmethyl)-3-methyl-N-((1r,4r)-4-(4-(2,2,2-trifluoro-ethyl)piperazin-1-yl)-cyclohexyl)-1H-thieno[2,3-c]pyrazole-5-carboxamide] | 0.01 to 0.03 | 0.03 to 0.1
2 | Cc1nn(CC2CCC2)c2sc(C(=O)N[C@H]3CC[C@H](N4CC(F)(F)C4)CC3)cc12 [II-22, 1-(cyclobutylmethyl)-N-((1r,4r)-4-(3,3-difluoroazetidin-1-yl)cyclohexyl)-3-methyl-1H-thieno [2,3-c]pyrazole-5-carboxamide] | 0.03 to 0.1 | 0.03 to 0.1
3 | Cc1nn(CC(C)(C)C)c2sc(C(=O)N[C@H]3CC[C@H](N4CCN(C5CC5)CC4)CC3)cc12 [II-24, N-((1r,4r)-4-(4-cyclo-propylpiperazin-1-yl)-cyclohexyl)-3-meth-yl-1-neopentyl-1H-thieno[2,3-c]pyrazole-5-carboxamide] | < 0.01 | < 0.01
4 | Cc1nn(C2CCC(F)(F)CC2)c2sc(C(=O)N[C@H]3CC[C@H](N4CCC(F)(F)C4)CC3)cc12 [II-26, 1-(4,4-difluorocyclo-hexyl)-N-((1r,4r)-4-(3,3-difluoropyrrol-idin-1-yl)cyclohexyl)-3-methyl-1H-thieno [2,3-c]pyrazole-5-carboxamide] | < 0.01 | < 0.01
5 | Cc1nn(CC(C)(C)C)c2sc(C(=O)N[C@H]3CC[C@H](N4CCC(F)(F)C4)CC3)cc12 [II-27, N-((1r,4r)-4-(3,3-difluoropyrrolidin-1-yl)cyclohexyl)-3-methyl-1-neopentyl-1H-thieno[2,3-c]pyr-azole-5-carboxamide] | < 0.01 | < 0.01
6 | Cc1nn(CC(C)(C)C)c2sc(C(=O)N[C@H]3CC[C@H](N4CCN(CC(F)F)CC4)CC3)cc12 [II-28, N-((1r,4r)-4-(4-(2,2-difluoroethyl)piper-azin-1-yl)cyclohex-yl)-3-methyl-1-neo-pentyl-1H-thieno [2,3-c]pyrazole-5-carboxamide] | 0.01 to 0.03 | 0.01 to 0.03
7 | Cc1nn(CC(C)(C)C)c2sc(C(=O)N[C@H]3CC[C@H](N4CCOCC4)CC3)cc12 [II-32, 3-methyl-N-((1r,4r)-4-morpholinocyclo-hexyl)-1-neopentyl-1H-thieno[2,3-c]pyr-azole-5-carboxamide] | < 0.01 | < 0.01
8 | Cc1nn(CC(C)(C)C)c2sc(C(=O)N[C@H]3C[C@H](N4CCN(C5CC5)CC4)C3)cc12 [II-34, N-((1r,3r)-3-(4-cyclo-propylpiperazin-1-yl)cyclobutyl)-3-methyl-1-neopentyl-1H-thieno[2,3-c] pyrazole-5-carbox-amide] | 0.01 to 0.03 | 0.03 to 0.1
9 | Cc1nn(CC(C)(C)C)c2sc(C(=O)N[C@H]3CC[C@H](N4CC(C#N)C4)CC3)cc12 [II-36, N-((1r,4r)-4-(3-cyanoazetidin-1-yl)-cyclohexyl)-3-meth-yl-1-neopentyl-1H-thieno[2,3-c]pyr-azole-5-carboxamide] | < 0.01 | < 0.01
10 | Cc1nn(CC(C)(C)C)c2sc(C(=O)Nc3cnc(N4CCOCC4)c(Cl)c3)cc12 [II-38, N-(5-chloro-6-morpholinopyridin-3-yl)-3-methyl-1-neopentyl-1H-thieno [2,3-c]pyrazole-5-carboxamide] | 0.1 to 0.5 | 0.5 to 2.5
11 | Cc1nn(CC(C)C)c2sc(C(=O)N[C@H]3CC[C@H](N4CC(C#N)C4)CC3)cc12 [II-43, N-((1r,4r)-4-(3-cyanoazetidin-1-yl)-cyclohexyl)-1-iso-butyl-3-methyl-1H-thieno[2,3-c]pyrazole-5-carboxamide] | 0.01 to 0.03 | 0.01 to 0.03

Results, then the molecule that gave them:

Row | IC50 (PDE7A) [µM] | IC50 (PDE7B) [µM] | Compound
12 | 0.03 to 0.1 | 0.1 to 0.5 | Cc1nn(CC2CCC2)c2sc(C(=O)N[C@H]3CC[C@H](N4CCN(C5CC5)CC4)CC3)cc12 [II-20, 1-(cyclobutylmethyl)-N-((1r,4r)-4-(4-cyclopropylpiperazin-1-yl)cyclohexyl)-3-methyl-1H-thieno [2,3-c]pyrazole-5-carboxamide]
13 | 0.01 to 0.03 | 0.03 to 0.1 | CC(=S)N1CCN([C@H]2CC[C@H](NC(=O)c3cc4c(C)nn(CC(C)C)c4s3)CC2)CC1 [II-23, N-((1r,4r)-4-(4-ethanethioylpiperazin-1-yl)cyclohexyl)-1-isobutyl-3-methyl-1H-thieno[2,3-c]pyrazole-5-carboxamide]
14 | 0.01 to 0.03 | 0.03 to 0.1 | Cc1nn(CC(C)(C)C)c2sc(C(=O)N[C@H]3C[C@H](N4CCOCC4)C3)cc12 [II-25, 3-methyl-N-((1r,3r)-3-morpholinocyclo-butyl)-1-neopentyl-1H-thieno[2,3-c]pyr-azole-5-carboxamide]
15 | 0.01 to 0.03 | 0.01 to 0.03 | CC(=O)N1CCN([C@H]2C[C@H](NC(=O)c3cc4c(C)nn(C5CCC(F)(F)CC5)c4s3)C2)CC1 [II-29, N-((1r,3r)-3-(4-acet-ylpiperazin-1-yl)-cyclobutyl)-1-(4,4-difluorocyclohexyl)-3-methyl-1H-thieno [2,3-c]pyrazole-5-carboxamide]
16 | < 0.01 | < 0.01 | Cc1nn(CC(C)(C)C)c2sc(C(=O)N[C@H]3CC[C@H](N4CC(F)(F)C4)CC3)cc12 [II-30, N-((1r,4r)-4-(3,3-difluoroazetidin-1-yl)cyclohexyl)-3-methyl-1-neopentyl-1H-thieno[2,3-c]pyr-azole-5-carboxamide]
17 | < 0.01 | < 0.01 | Cc1nn(CC(C)(C)C)c2sc(C(=O)N[C@H]3CC[C@H](N4CCN(C(C)C)CC4)CC3)cc12 [II-31, N-((1r,4r)-4-(4-iso-propylpiperazin-1-yl)cyclohexyl)-3-methyl-1-neopentyl-1H-thieno[2,3-c]pyr-azole-5-carboxamide]
18 | 0.01 to 0.03 | 0.01 to 0.03 | Cc1nn(C2CCC(F)(F)CC2)c2sc(C(=O)N[C@H]3C[C@H](N4CCN(C5CC5)CC4)C3)cc12 [II-33, N-((1r,3r)-3-(4-cyclo-propylpiperazin-1-yl)cyclobutyl)-1-(4,4-difluorocyclohexyl)-3-methyl-1H-thieno [2,3-c]pyrazole-5-carboxamide]
19 | 0.01 to 0.03 | 0.01 to 0.03 | Cc1nn(CC(C)(C)C)c2sc(C(=O)Nc3ccc(N4CCOCC4)nc3)cc12 [II-35, 3-methyl-N-(6-morpholinopyridin-3-yl)-1-neopentyl-1H-thieno[2,3-c]pyr-azole-5-carboxamide]
20 | < 0.01 | < 0.01 | CC(=O)N1CCN([C@H]2CC[C@H](NC(=O)c3cc4c(C)nn(CC(C)(C)C)c4s3)CC2)CC1 [II-37, N-((1r,4r)-4-(4-acet-ylpiperazin-1-yl)-cyclohexyl)-3-meth-yl-1-neopentyl-1H-thieno[2,3-c]pyr-azole-5-carboxamide]
21 | 0.03 to 0.1 | 0.03 to 0.1 | Cc1nn(C2CCC(F)(F)CC2)c2sc(C(=O)N[C@H]3C[C@@H](N4CCC(F)(F)C4)C3)cc12 [II-39, 1-(4,4-difluorocyclo-hexyl)-N-((1s,3s)-3-(3,3-difluoropyrrol-idin-1-yl)cyclobutyl)-3-methyl-1H-thieno [2,3-c]pyrazole-5-carboxamide]
22 | 0.1 to 0.5 | 0.1 to 0.5 | Cc1nn(CC(C)(C)C)c2sc(C(=O)Nc3ccc(N4CCOCC4)c(C#N)c3)cc12 [II-40, N-(3-cyano-4-mor-pholinophenyl)-3-methyl-1-neopentyl-1H-thieno[2,3-c]pyr-azole-5-carboxamide]
23 | 0.01 to 0.03 | < 0.01 | Cc1nn(C2CCC(F)(F)CC2)c2sc(C(=O)N[C@H]3CC[C@H](N4CC(OC(F)F)C4)CC3)cc12 [II-41, 1-(4,4-difluorocyclo-hexyl)-N-((1r,4r)-4-(3-(difluorometh-oxy)azetidin-1-yl)-cyclohexyl)-3-methyl-1H-thieno [2,3-c]pyrazole-5-carboxamide]
24 | < 0.01 | < 0.01 | Cc1nn(CC(C)(C)C)c2sc(C(=O)N[C@H]3CC[C@H](N4CC(OC(F)F)C4)CC3)cc12 [II-42, N-((1r,4r)-4-(3-(difluoromethoxy)-azetidin-1-yl)cyclo-hexyl)-3-methyl-1-neopentyl-1H-thieno [2,3-c]pyrazole-5-carboxamide]
25 | 0.03 to 0.1 | 0.1 to 0.5 | Cc1nn(CC(C)C)c2sc(C(=O)N[C@H]3CC[C@H](N4CC(OC(F)F)C4)CC3)cc12 [II-44, N-((1r,4r)-4-(3-(difluoromethoxy)-azetidin-1-yl)cyclo-hexyl)-1-isobutyl-3-methyl-1H-thieno [2,3-c]pyrazole-5-carboxamide]
26 | < 0.01 | 0.01 to 0.03 | COC1CN([C@H]2CC[C@H](NC(=O)c3cc4c(C)nn(CC(C)(C)C)c4s3)CC2)C1 [II-45, N-((1r,4r)-4-(3-methoxyazetidin-1-yl)cyclohexyl)-3-methyl-1-neopentyl-1H-thieno[2,3-c]pyr-azole-5-carboxamide]
